Measured values published in patent EP4682141A1, “TRICYCLIC COMPOUND” (ONO Pharmaceutical Co., Ltd., priority 2023, dated 2024).

Experiments:
EP3 receptor = biological target: T1, EP3 receptor (Homo sapiens, UniProt P43115); test: agonist activity on human EP3 receptor (intracellular calcium concentration, EP3-Chem1 cells); type: cell-based; conditions: agonist activity on the EP3 receptor
T1 construct: expressed in transfected cells; host or cells: EP3-Chem1
T1 sequence (P43115 1-390): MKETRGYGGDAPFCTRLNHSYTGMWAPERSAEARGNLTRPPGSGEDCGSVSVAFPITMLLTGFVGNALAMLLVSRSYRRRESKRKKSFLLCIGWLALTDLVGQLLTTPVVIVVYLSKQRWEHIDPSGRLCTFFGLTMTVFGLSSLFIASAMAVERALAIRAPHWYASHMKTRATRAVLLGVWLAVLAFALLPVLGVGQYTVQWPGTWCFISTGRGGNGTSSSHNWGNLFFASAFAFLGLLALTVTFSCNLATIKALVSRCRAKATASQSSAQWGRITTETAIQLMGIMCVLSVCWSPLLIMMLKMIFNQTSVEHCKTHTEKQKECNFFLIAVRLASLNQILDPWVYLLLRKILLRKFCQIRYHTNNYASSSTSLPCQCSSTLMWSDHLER
Experimental: (§1) Using CHO cells (EP1-CHO, EP2-CHO, EP3-Chem1, EP4-CHO and IP-CHO) on which various human prostanoid receptors were forcibly expressed, the agonist activity of the test compound on the various prostanoid receptors was examined using the intracellular calcium concentration for EP1 and EP3, and the intracellular cyclic AMP (hereinafter, abbreviated as cAMP) production amount for EP2, EP4 and IP as indices.
(§2) The test compound and control substances (PGE2 and iloprost) were dissolved in dimethyl sulfoxide (DMSO) to prepare a 10 mmol/L solution. The prepared 10 mmol/L solution was thawed at the time of use, serially diluted using DMSO, and diluted with a buffer solution 1 for measurement (Hank's balanced salt solution (Thermofischer scientific) containing 1 w/v% human serum albumin (Sigma), 2 µmol/L indomethacin (Sigma), 2.5 mmol/L probenecid, and 10 mmol/L HEPES-NaOH (pH7.4)) or a buffer solution 2 for measurement (D-PBS (Nacalai Tesque) containing 0.1 w/v% human serum albumin, 2 µmol/L diclofenac (Sigma), and 1 mmol/L 3-isobutyl-1-methylxanthine (Sigma)) to perform experiments.

EP4 = biological target: T2, EP4 (Homo sapiens, UniProt P35408); test: agonist activity on human EP4 receptor (cAMP production, EP4-CHO cells); type: cell-based
T2 construct: expressed in transfected cells; host or cells: CHO (EP4-CHO)
T2 sequence (P35408 whole entry): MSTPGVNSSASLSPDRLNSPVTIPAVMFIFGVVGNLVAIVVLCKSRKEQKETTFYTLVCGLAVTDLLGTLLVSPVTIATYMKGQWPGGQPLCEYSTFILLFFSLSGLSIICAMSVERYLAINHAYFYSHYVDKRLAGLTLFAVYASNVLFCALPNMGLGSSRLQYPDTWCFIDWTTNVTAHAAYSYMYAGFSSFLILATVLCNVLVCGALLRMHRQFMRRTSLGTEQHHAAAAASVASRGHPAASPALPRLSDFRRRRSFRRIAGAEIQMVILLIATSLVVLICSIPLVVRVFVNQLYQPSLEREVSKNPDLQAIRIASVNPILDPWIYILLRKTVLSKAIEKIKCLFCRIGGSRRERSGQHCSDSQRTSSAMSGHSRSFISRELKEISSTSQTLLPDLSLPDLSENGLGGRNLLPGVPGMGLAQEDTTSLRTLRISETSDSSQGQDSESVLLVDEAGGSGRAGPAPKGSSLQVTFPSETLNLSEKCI
Experimental: as §1
(§3) The test compound and control substances (PGE2 and iloprost) were dissolved in dimethyl sulfoxide (DMSO) to prepare a 10 mmol/L solution. […]
(§4) On the day of the measurement, EP2-CHO, EP4-CHO, and IP-CHO were obtained by thawing frozen cells. […] The cAMP concentration was measured using a cAMP HTRF HiRange kit (CIS bio International). […] After incubation for 1 hour, time-resolved fluorescence at 620 nm and 660 nm when excited at 340 nm was measured using Synergy Neo (Bioteck), and the ratio (TRF ratio) was determined to calculate the cAMP concentration from the calibration curve.

IP = biological target: T3, IP (Homo sapiens, UniProt P43119); test: agonist activity on human IP receptor (cAMP production, IP-CHO cells); type: cell-based
T3 construct: expressed in transfected cells; host or cells: CHO (IP-CHO)
T3 sequence (P43119 whole entry): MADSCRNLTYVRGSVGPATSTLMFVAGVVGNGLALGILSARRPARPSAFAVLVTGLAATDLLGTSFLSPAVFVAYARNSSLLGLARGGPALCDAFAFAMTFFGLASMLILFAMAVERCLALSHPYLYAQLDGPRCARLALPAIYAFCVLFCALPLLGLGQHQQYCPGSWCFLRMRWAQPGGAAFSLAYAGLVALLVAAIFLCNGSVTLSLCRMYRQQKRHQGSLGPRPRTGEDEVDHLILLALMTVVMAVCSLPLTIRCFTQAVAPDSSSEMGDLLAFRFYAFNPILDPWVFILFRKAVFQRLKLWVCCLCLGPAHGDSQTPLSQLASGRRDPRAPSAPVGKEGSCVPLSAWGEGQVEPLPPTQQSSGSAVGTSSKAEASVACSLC
Experimental: as §1, §3, §4

EP1 = biological target: T4, EP1 (Homo sapiens, UniProt P34995); test: agonist activity on human EP1 receptor (intracellular calcium concentration, EP1-CHO cells); type: cell-based
T4 construct: expressed in transfected cells; host or cells: CHO (EP1-CHO)
T4 sequence (P34995 1-402): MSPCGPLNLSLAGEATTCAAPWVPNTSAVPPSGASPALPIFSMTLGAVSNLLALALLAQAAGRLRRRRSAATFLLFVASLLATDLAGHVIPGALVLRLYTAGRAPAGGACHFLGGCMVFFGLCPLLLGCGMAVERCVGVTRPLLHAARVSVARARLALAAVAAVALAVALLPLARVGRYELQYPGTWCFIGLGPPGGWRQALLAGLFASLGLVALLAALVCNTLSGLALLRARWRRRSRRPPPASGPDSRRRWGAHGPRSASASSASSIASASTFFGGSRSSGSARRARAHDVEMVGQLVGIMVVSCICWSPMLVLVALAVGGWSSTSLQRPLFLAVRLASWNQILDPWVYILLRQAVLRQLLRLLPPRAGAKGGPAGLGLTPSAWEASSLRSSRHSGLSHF
Experimental: as §1, §2
The intracellular calcium concentration was measured using Calcium 6 Assay Kit (Molecular Devices). On the day before the measurement, EP1-CHO and EP3-Chem 1 were obtained by thawing the frozen cells, suspended using Ham's F-12 medium (Thermofischer scientific) containing inactivated (56°C, 30 min) 9.8 vol% FBS (Thermofischer scientific) and penicillin-streptomycin (Nacalai Tesque), seeded into a 96 well UV plate to 1.0×10^5 cells per well, and static cultured at 37°C in the presence of 5%CO2. On the day of the measurement, the medium was removed, followed by addition of 120 µL of the Calcium indication solution dissolved in the buffer solution 1 for measurement and incubation at room temperature under light-shielding for about 1 hour. After 1 hour incubation, the 96 well UV plates were set in a fluorescence spectrophotometer (FDSS-7000, Hamamatsu Photonics) to measure the intracellular calcium concentration. Thirty microliters of the buffer solution 1 for measurement containing various concentrations of agonists were added, and the mixture was reacted. The intracellular calcium concentration was measured by irradiating the cells with 480 nm excitation light and measuring the fluorescence intensity at 540 nm.

EP2 = biological target: T5, EP2 (Homo sapiens, UniProt P43116); test: agonist activity on human EP2 receptor (cAMP production, EP2-CHO cells); type: cell-based
T5 construct: expressed in transfected cells; host or cells: CHO (EP2-CHO)
T5 sequence (P43116 whole entry): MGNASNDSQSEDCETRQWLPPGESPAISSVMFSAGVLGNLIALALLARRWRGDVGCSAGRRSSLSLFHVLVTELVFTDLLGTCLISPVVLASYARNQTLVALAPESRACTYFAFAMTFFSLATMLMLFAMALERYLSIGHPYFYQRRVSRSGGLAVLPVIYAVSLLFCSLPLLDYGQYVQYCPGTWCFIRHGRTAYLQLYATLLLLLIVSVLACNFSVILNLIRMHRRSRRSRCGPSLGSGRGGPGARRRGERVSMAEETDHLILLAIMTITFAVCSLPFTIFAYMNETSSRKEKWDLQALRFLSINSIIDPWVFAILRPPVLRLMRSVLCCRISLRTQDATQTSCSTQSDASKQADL
Experimental: as §1, §3, §4

[1] = system: rat 5/6 kidney-removed model; test: in vivo drug efficacy on renal damage in rat 5/6 kidney-removed model; design: species or system Jcl: Wistar (Wistar) rats; conditions: after 8 weeks from the start of administration
Text: The obtained urine sample was centrifuged, and the supernatant was subjected to measurement.

diabetes model rat = test: inhibitory effect on the amount of albumin excreted in urine in diabetes model rat; type: in vivo, SDT Fatty rats; conditions: urine collected for 24 hours, urine albumin/urine creatinine ratio
Experimental: Male SDT Fatty rats aged 6 weeks (CLEA Japan) were purchased and preliminarily bred for 1 week or more. Experiments were performed at 8 to 16 weeks of age. The animals were fed ad libitum with solid feed CRF-1 (Oriental Yeast) and watered ad libitum.
Animals were housed in metabolic cages 2 days before test substance administration, and urine was collected for 24 hours. On the day before administration of the test substance, urine albumin and urine creatinine were measured, and grouping was performed by a stratification randomization method based on the urine albumin/urine creatinine ratio (ACR) and the average value of body weights for each group.
The compounds (test substances) of Examples 9-5, 10, 11, 12, 25-7 and 32, and water for injection (Otsuka Pharmaceutical) as a vehicle were orally administered once at 5 mL/kg. The administration dose is described in Table 3.
For evaluation of the amount of albumin excreted in urine of each animal, a urine albumin/urine creatinine ratio (ACR) was measured. After administration of the test substance, the animals were housed in metabolic cages, and urine was collected for 24 hours. Each concentration of urine albumin and urine creatinine was measured using an automatic analyzer 7180 (Hitachi High-Tech), and ACR was calculated by dividing the urine albumin concentration by the urine creatinine concentration.

[2] = system: diabetic renal disease model rat; test: in vivo drug efficacy in diabetic renal disease model rat (single kidney removal, saline); design: species or system SDT.Cg-Leprfa/JttJcl (SDT-fatty rat); conditions: 8 weeks after the start of administration
Experimental: A diabetic renal disease model was created by extracting the unilateral kidneys of male SDT.Cg-Leprfa/JttJcl (SDT-fatty/Jcl, CLEA Japan) rats, a type 2 diabetes model, and then giving saline. The in vivo drug efficacy of the present compound on diabetic renal disease was evaluated in this model.
Male SDT.Cg-Leprfa/JttJcl (SDT-fatty rat) aged 4 weeks was purchased from CLEA Japan, and subjected to experiments. The animals were fed ad libitum with Purina5008 (Japan SLC) from the time of arrival, and watered ad libitum. Water was given from the arrival and until 1 week from single kidney removal, and a 0.2 w/v% NaCl solution was given 1 week after single kidney removal.
After acclimation breeding, the body weight was measured, and buprenorphine was subcutaneously administered at a dose of 0.01 mg/kg under inhalation anesthesia with isoflurane (Mayran). After removing hair from the right abdomen of the rat, the right abdomen was disinfected with ethanol and isodine for disinfection and incised to expose the right kidney. The renal artery and vein was ligated with a suture to stop the blood flow, the right kidney was totally removed, and the incision was sutured. The following day, analgesic buprenorphine was administered subcutaneously at a dose of 0.01 mg/kg.
Grouping was performed 3 weeks after single kidney removal. The mice were divided into groups so that the average of the above parameters was almost equal between the groups on the basis of body weight, serum urea nitrogen (BUN), serum creatinine (S-CRE), serum total cholesterol (T-CHO), blood glucose level (GLU), neutral fat (TG), urinary protein (U-TP), urinary albumin (U-ALB), and creatinine clearance (CCr).
All of the compounds of Examples 25-7, 10, 11 and 12 were orally administered once a day for 8 weeks in combination with losartan (30 mg/kg), a renin angiotensin system inhibitor, and canagliflozin (10 mg/kg), a glucose co-transporter inhibitor. The compounds of Examples 25-7, 10, 11 and 12, and losartan were each dissolved in water for injection (Otsuka Pharmaceutical), and canagliflozin was suspended in a 0.5% methyl cellulose solution (Fujifilm Wako Pure Chemical Corporation) to prepare an administration solution. In the Control-1 group, water for injection which is a vehicle of losartan or the compound of Examples 25-7, 10, 11 or 12 was orally administered at 5 mL/kg, and a 0.5% methylcellulose solution which is a vehicle of canagliflozin was orally administered at 2.5 mL/kg once a day for 8 weeks. In the Control-2 group, losartan (30 mg/kg) dissolved in water for injection was orally administered at an administration volume of 2.5 mL/kg, canagliflozin (10 mg/kg) suspended in a 0.5% methyl cellulose solution was orally administered at an administration volume of 2.5 mL/kg, and water for injection which is a vehicle of the compounds of Examples 25-7, 10, 11 and 12 was orally administered at an administration volume of 2.5 mL/kg once a day for 8 weeks. The administration dose is described in Table 8.
Blood was collected by puncturing the tail vein of the rat with an injection needle. Blood was collected in a tube for serum separation (BD Microtainer) and centrifuged to obtain serum. Urine was collected for 24 hours in a metabolic cage for rat under conditions in which a solid feed and water can be freely taken. The obtained urine sample was centrifuged, and the supernatant was subjected to measurement. The concentrations of BUN, S-CRE, T-CHO, TG, U-ALB, U-TP, GLU and U-CRE were measured by an automatic analyzer Hitachi 7180 (Hitachi High-Tech).

Molecule | EC50 (EP3 receptor) [µM] | EC50 (EP4) [µM] | EC50 (IP) [µM] | EC50 (EP1) [µM] | EC50 (EP2) [µM] | Amount of albumin excreted in urine mean ([1]; 0.01 mg/kg orally once a day for 8 weeks) [mg/24 h] | Amount of albumin excreted in urine mean ([1]; 0.03 mg/kg orally once a day for 8 weeks) [mg/24 h] | ACR mean (diabetes model rat; 0.01 mg/kg orally once) [µg/mg] | ACR mean (diabetes model rat; 0.03 mg/kg orally once) [µg/mg] | Serum creatinine mean ([2]; 0.01 mg/kg orally once a day for 8 weeks in combination with losartan (30 mg/kg) and canagliflozin (10 mg/kg)) [mg/dL] | Serum creatinine mean ([2]; 0.03 mg/kg orally once a day for 8 weeks in combination with losartan (30 mg/kg) and canagliflozin (10 mg/kg)) [mg/dL] | Amount of albumin excreted in urine mean ([1]; 0.1 mg/kg orally once a day for 8 weeks) [mg/24 h] | ACR mean (diabetes model rat; 0.1 mg/kg orally once) [µg/mg] | Serum creatinine mean ([2]; 0.1 mg/kg orally once a day for 8 weeks in combination with losartan (30 mg/kg) and canagliflozin (10 mg/kg)) [mg/dL]
(1R,2R,3aS,10aR)-2,5-difluoro-1-[(1E,3ξ)-3-hydroxy-4-methyl-4-phenyl-1-penten-yl]-2,3,3a,9,10,10a-hexahydro-1H-benzo[b]cyclopenta[f]oxepine-6-carboxylic acid [Example 28] | 0.03 | 1.1 | > 10 | > 10 | > 10 | – | – | – | – | – | – | – | – | –
Cc1c(C(=O)O)ccc2c1O[C@H]1C[C@@H](O)[C@H](/C=C/C[C@@](C)(O)CCC(F)=C(F)F)[C@H]1CC2 [Example 11, (1R,2R,3aS,10aR)-2-hydroxy-5-methyl-1-[(1E,45)-7,8,8-trifluoro-4-hydroxy-4-methyl-1,7-octadien-1-yl]-2,3,3a,9,10,10a-hexahydro-1H-benzo[b]cyclopenta[f]oxepine-6-carboxylic acid] | – | – | – | > 10 | – | 46.01 | 37.94 | 1010.5 | 575.3 | 0.46 | 0.47 | – | – | –
CCC(CCC(C)C)C(O)/C=C/[C@@H]1[C@H]2CCc3ccc(C(=O)O)c(C)c3O[C@H]2C[C@H]1O (stereo partly drawn) [Example 10, (1R,2R,3aS,10aR)-1-[(1E,3ξ,4ξ)-4-ethyl-3-hydroxy-7-methyl-1-octen-1-yl]-2-hydroxy-5-methyl-2,3,3a,9,10,10a-hexahydro-1H-benzo[b]cyclopenta[f]oxepine-6-carboxylic acid] | – | – | – | > 10 | – | – | – | 909.3 | – | – | – | 35.47 | 751.6 | 0.50
